Data reported in patent US11058699B2, “Method and compositions for inhibition of double stranded DNA viruses” (WISCONSIN ALUMNI RESEARCH FOUNDATION, priority 2008, dated 2021).
“Also recorded” adds a separate entry of the source.

What was measured:
[1] = system: HPV pseudovirions hpvSEAP; experiment: hpvSEAP pseudovirion infectivity assay (SEAP) in 293T cells; type: cell-based, HPV16
Procedure: FIG. 6. Early M phase arrest by CDK1 inhibition interferes with HPV infection. (FIG. 6A) 293T cells were treated with a CDK1 inhibitor, purvalanol A (3, 6, and 12 μM) and infected with hpvSEAP. […] The columns represent the mean, the bars represent the standard deviation. (FIG. 6B) Cell cycle arrest at M phase by purvalanol A (12 μM) is shown. Histograms indicate the cell cycle status of DMSO and purvalanol A-treated cells, respectively.
Cell cycle inhibitors block HPV infection. To identify mechanistic pathways and informative modulators of HPV infection, we tested nearly 5,000 compounds in known bioactive molecule libraries Prestwick (Prestwick Chemicals) and LOPAC (Library of Pharmacologically Active Compounds, Sigma), with HPV pseudovirions containing an SV40 promoter-driven secreted alkaline phosphatase (SEAP) reporter gene (hpvSEAP). […] Total RNA was extracted after 48 hours, and expression levels of HPV16 E1 ^E4 RNA transcripts were measured by qRT-PCR using E7, E2, and E5 sequence specific primers.
High throughput screening.
Infectivity assay. […] Infectivity of wild type HPV16 virions was examined by quantitative reverse transcriptase PCR (qRT-PCR) by amplifying viral mRNA signals from HPV16-treated 293TT cells. 293TT cells were infected with 50-100 vge/cell of packaged virus and incubated for 48 hours at 37° C.

[2] = system: influenza virus vector expressing RL; type: cell-based
[3] = system: hpv16wpA-RL; type: cell-based, HPV16; conditions: 293T cells, 24 hour synchronization with aphidicolin, 4 hour treatment 3 μM, 48 hours
[4] = system: β-actin expression; experiment: Cellular β-actin expression by qRT-PCR in 293T cells; type: cell-based, human; conditions: 3 μM, 48 hours
[5] = system: wild type HPV16; experiment: Wild type HPV16 infection of 293T cells, early gene expression by qRT-PCR; type: cell-based; conditions: 4 hours pre-treatment with 3 μM, 48 hours, compared with neutralizing antibody H16.7E
[6] = system: HaCaT cells; experiment: CellTiter-Glo Luminescent cell viability assay in HaCaT cells; conditions: 3 μM, 48 hours
Procedure: The reporter RL activity (FIG. 1A) and cell viability (FIG. 1B) were measured by Renilla Luciferase Assay System (Promega) and CellTiter-Glo Luminescent cell viability assay (Promega), respectively. Human keratinocyte HaCaT cells were inoculated with HPV16 LCR-driven RL containing pseudovirions hpv16wpA-RL after 4 hours of pre-treatment with 3 μM of each compound, and reporter expression/cell viability were scored 48 hours later. The expression value is shown as viability to untreated cells with hpv16wpA-RL.

[7] = 293 cells, HPV16 pseudoviruses expressing SEAP or Renilla luciferase, or intact infectious HPV16 (early gene expression)

Structure (SMILES): CC(C)[C@H](CO)Nc1nc(Nc2cccc(Cl)c2)c2ncn(C(C)C)c2n1 [Purvalanol A, purvalanol A]
- inhibition of HPV infection ([1]; 293T cells, 12 μM, hpvSEAP, 48 hours): about 5 fold
- inhibition of HPV infection, dose dependence ([1]; 293T cells, 3, 6 and 12 μM, SEAP after 48 hours): inhibited HPV infection dose-specifically

Structure (SMILES): C[C@@]1(CO)[C@H](O)CC[C@@]2(C)[C@H]1CC[C@H]1C[C@@H]3C[C@@]12CC[C@]3(O)CO [aphidicolin]
- influenza infection (RL activity) [2]: did not significantly affect
- inhibition of HPV infection [1, 7]: significantly and consistently inhibit; also recorded: most significant and consistent inhibition
- HPV infection (RL activity) [3]: efficiently blocked
- cellular β-actin expression [4]: no effect; also recorded: not affected
- HPV16 gene expression (wild type HPV16 virion infection) [5]: blocked HPV16 gene expression even more efficiently than a neutralizing antibody

Structure (SMILES): COc1cc([C@@H]2c3cc4c(cc3[C@@H](O[C@@H]3O[C@@H]5CO[C@@H](C)O[C@H]5[C@H](O)[C@H]3O)[C@H]3COC(=O)[C@H]23)OCO4)cc(OC)c1O [etoposide]
- influenza infection (RL activity) [2]: did not significantly affect
- inhibition of HPV infection [1, 7]: most significant and consistent inhibition
- inhibition of HPV infection ([1]; 293 cells, HPV16 pseudoviruses expressing SEAP or Renilla luciferase, or intact infectious HPV16 (early gene expression), listed as etopside): significantly and consistently inhibit
- HPV infection (RL activity) [3]: efficiently blocked
- cellular β-actin expression [4]: no effect; also recorded: not affected
- HPV16 gene expression (wild type HPV16 virion infection) [5]: blocked HPV16 gene expression even more efficiently than a neutralizing antibody

Structure (SMILES): O=c1[nH]cc(F)c(=O)[nH]1 [5-fluorouracil]
- effect on cell viability [6]: did not have any effect
